# Laboratory results from US20220202859A1, “CANCER TREATMENT USING CD38 INHIBITOR AND/OR LENALIDOMIDE AND T-CELLS EXPRESSING A CHIMERIC ANTIGEN RECEPTOR” (CRISPR THERAPEUTICS AG, priority 2020, published 2022).
# T1: mouse BCMA (mouse, UniProt O88472 1-49, limits assumed)
# T1 construct: also called murine BCMA
# T1 chain (looked up): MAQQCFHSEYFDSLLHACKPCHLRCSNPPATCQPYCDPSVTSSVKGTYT
# T2: biotinylated recombinant human BCMA (Acro Biosystems Cat: #BC7-H82F0) (human, UniProt Q02223 1-54, biotinylated)
# T2 construct: Bought reagent
# T2 sequence (looked up): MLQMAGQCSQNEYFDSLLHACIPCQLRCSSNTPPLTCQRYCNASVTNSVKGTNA
# Assays:
# [1] = lenalidomide-treated subjects; prescribing information; cited from earlier work
# NK cells [2] = experiment: Cytokine secretion in co-culture of NK cells with K562 cells with Lenalidomide; assay type: cell-based, human
# Description: (§1) Additionally, cytokine secretion was tested at the end of the co-culture described above, following co-culture of NK cells with B2M^neg T cells, K562 cells (a B2M^neg cell line, commonly used as a positive control for activation of NK cells due to lack of B2M expression), and unedited T cells (used as a negative control for NK cells activation).
# anti-BCMA CAR-T cells [3] = experiment: Impact of Lenalidomide on editing efficiency and CD4/CD8 ratio of CAR-T cells; assay type: cell-based, human; conditions: day 8
# Description: Editing efficiency, including TRAC−%, B2M−% and CAR+% were assessed at day 7/8 and/or day 13/14 with anti-BCMA CAR-T cells. […] Anti-BCMA CAR-T cells were not harvested around day 14 due to slower growth rate. About 51-58% of CAR+%, 96% TRAC−% and 75-77% of B2M−% were detected from anti-BCMA CAR-T cells with or without Lenalidomide treatment.
# CD4% and CD8% were assessed at day 7/8 and/or day 13/14 with the anti-BCMA CAR-T cells disclosed above. […] The anti-BCMA CAR-T cells were not assessed and harvested around day 14 due to slower expansion. Compared with Lenalidomide untreated anti-BCMA CAR-T cells, there was dose-dependent increase of CD8 positive cells, ranging from 7-15%. […] Expansion scale (small or medium) didn't impact the CD4 and CD8 phonotype.
# MM.1S tumors = experiment: Lenalidomide plus anti-BCMA CAR-T cells in MM.1S subcutaneous tumor model; conditions: single arm: 3 million CAR-T cells, or Lenalidomide 1.5 or 10 mg/kg
# NK cells [4] = experiment: NK cytotoxicity towards B2Mneg T cells with Lenalidomide; assay type: cell-based, human; conditions: overnight co-culture; wide range of Lenalidomide concentrations
# Description: Two modes of allogenic immune recognition were tested: immune recognition of B2M^neg cells by NK cells, and immune recognition by allogenic T cells. Examination of the cytotoxic activity of NK cells towards B2M^neg cells was tested following overnight (ON) co-culture in varying concentrations of NK to T cells, and varying concentrations of Lenalidomide. Increasing concentration of NK to B2M^neg T cells led to an increase in the cytotoxic activity of NK cells towards B2M^neg T cells.
# NK cells [5] = experiment: Cytokine secretion in co-culture of NK cells with B2Mneg T cells with Lenalidomide; assay type: cell-based, human
# Description: as §1
# anti-BCMA CAR-T cells [6] = experiment: Lenalidomide on cytokine secretion of anti-BCMA CAR-T cells co-cultured with JeKo-1; assay type: cell-based, human; conditions: overnight culture with JeKo-1, 2:1 effector to target; all concentrations tested
# Description: Addition of Lenalidomide to the co-culture media led to enhanced cytokine secretion of multiple effector cytokines, among them IFN-γ and TNF-α following CAR-T cell engagement by the BCMA expressing target cell line (FIG. 1C).
# PBMCs = experiment: MLR assay (mixed lymphocyte reaction) with Lenalidomide; assay type: cell-based, human
# Description: Next, allo-reactivity towards edited T cells (B2M^neg/TCR^neg) was tested using an MLR assay (mixed lymphocyte reaction). In this assay PBMCs (“responder cells”) were mixed with irradiated auto or allo T cells (“stimulator cells”). At the end of the assay, the activation of the responder cells was evaluated by measuring the cell proliferation in the co-culture, with cell proliferation serving as a proxy for immune activation. In the assay shown in FIG. 19C, both auto (donor 1) & allo (donor 2 & 3) were evaluated for immune activation following co-culture. […] As expected, immune activation was reduced upon deletion of B2M & TRAC from the T cells, as evident by the reduced proliferation in both donors tested.
# anti-BCMA CAR-T cells [7] = experiment: Cytokine secretion of CAR-T cells produced in the presence of Lenalidomide, co-culture with JeKo-1; assay type: cell-based, human; conditions: Lenalidomide 0.5, 2 & 10 uM during ~10 day production; JeKo-1 at 0.5:1 effector to target, no Lenalidomide in assay
# Description: PBMCs were thawed and activated by T cell activation agents to enrich for T cells. After 3 days, T cells were edited for B2M and TRAC knock-out using a CRISPR/Cas gene editing system. An anti-BCMA expression cassette (as an exemplary CAR construct) was knocked into the TRAC locus to produce anti-BCMA CAR-T cells. Following the editing procedure, resulting T cells were expanded in the presence of absence of Lenalidomide in a concentration of 0.5, 2, & 10 uM for approximately 10 days. The resulting cells were later evaluated for cytokine secretion following antigen stimulation, in the absence of Lenalidomide.
# The inclusion of Lenalidomide […] led to enhanced cytokine secretion of multiple effector cytokines, among them IFN-γ and TNF-α, upon CAR-T engagement by the BCMA expressing target cell line (FIG. 20).
# anti-BCMA CAR-T cells [8] = experiment: Lenalidomide on in vitro expansion and senescence (CD57) of anti-BCMA CAR-T cells
# mouse BCMA = target: T1, mouse BCMA; experiment: not described (statement in Example 5)
# [9] = target: T2, biotinylated recombinant human BCMA …; experiment: flow cytometry of CTX120 cells, detection of the surface CAR with biotinylated BCMA and fluorescent streptavidin
Molecule,grade 3 or 4 neutropenia [1],grade 3 or 4 thrombocytopenia [1],cytokine secretion (NK cells [2]),overall distribution of CD4 and CD8 cells (anti-BCMA CAR-T cells [3]),dose-dependent increase of CD8 positive cells (anti-BCMA CAR-T cells [3]; compared with Lenalidomide untreated cells),effect on tumor regression and mouse survival compared to no treatment arm (MM.1S tumors),NK cell killing of B2Mneg T cells (NK cells [4]),cytokine secretion (NK cells [5]),effector cytokine secretion upon antigen stimulation (anti-BCMA CAR-T cells [6]),proliferation upon allo co-culture with edited T cells (PBMCs; edited (B2Mneg/TCRneg) stimulator T cells),"allo reactivity towards unedited T cells (PBMCs; unedited stimulator T cells, donor 2)",effector cytokine secretion upon antigen stimulation (anti-BCMA CAR-T cells [7]),higher expansion of anti-BCMA CAR-T cells (anti-BCMA CAR-T cells [8]; 0.5 uM to 10 uM Lenalidomide),"senescence marker CD57 expression (anti-BCMA CAR-T cells [8]; all tested concentrations, 10 day culture)",binding result (mouse BCMA),binding result [9]
Nc1cccc2c1CN(C1CCC(=O)NC1=O)C2=O (stereo not shown) [Lenalidomide],up to 59%,up to 38%,Upregulation of secretion of several cytokines,not significantly altered,7-15%,minimal effect on both tumor regression and mouse survival,did not lead to an increased cell killing of the B2M^neg T cells,minimal changes were observed upon addition of Lenalidomide,enhanced effector cytokine secretion upon antigen stimulation,minimal changes upon addition of Lenalidomide to the co-culture,may in some cases enhance allo reactivity towards unedited T cells,enhance effector cytokine secretion upon antigen stimulation,5-30 fold,reduced expression of CD57,,
"anti-BCMA CAR (CTX-166b) expressed on CTX120 cells (other, also called CTX120 anti-BCMA CAR; CTX120 CAR) QVQLVQSGAELKKPGASVKVSCKASGNTLTNYVIHWVRQAPGQRLEWMGYILPYNDLTKYSQKFQGRVTITRDKSASTAYMELSSLRSEDTAVYYCTRWDWDGFFDPWGQGTTVTVSSGGGGSGGGGSGGGGSEIVMTQSPATLSVSPGERASISCRASQSLVHSNGNTHLHWYQQRPGQAPRLLIYSVSNRFSEVPARFSGSGSGTDFTLTISSVESEDFAVYYCSQTSHIPYTFGGGTKLEIKSAAAFVPVFLPAKPTTTPAPRPPTPAPTIASQPLSLRPEACRPAAGGAVHTRGLDFACDIYIWAPLAGTCGVLLLSLVITLYCNHRNRKRGRKKLLYIFKQPFMRPVQTTQEEDGCSCRFPEEEEGGCELRVKFSRSADAPAYQQGQNQLYNELNLGRREEYDVLDKRRGRDPEMGGKPRRKNPQEGLYNELQKDKMAEAYSEIGMKGERRRGKGHDGLYQGLSTATKDTYDALHMQALPPR",,,,,,,,,,,,,,,no binding,binds
